# ChEMBL document CHEMBL1148108, “Prenylated isoflavonoids from the root bark of Erythrina vogelii” (J Nat Prod, 2002)
# Active and inactive are the calls of the source. The calls are words filed in the database; no cut-off is given here.
# System: Cladosporium cucumerinum
# Assay: Antifungal activity against Cladosporium cucumerinum by TLC biautography assay
# Format: functional, organism-based
row,Structure (SMILES),Activity
1,CC1(C)Oc2ccc(-c3coc4cc(O)cc(O)c4c3=O)cc2C[C@@H]1O,inactive
2,COc1cc(O)c(CC=C(C)C)cc1-c1coc2cc(O)cc(O)c2c1=O,inactive
3,CC(C)=CCc1cc(-c2coc3cc(O)cc(O)c3c2=O)cc2c1OC(C)(C)C(O)C2 (configuration not stated),inactive
4,C/C(=C\Cc1cc(-c2coc3cc(O)cc(O)c3c2=O)ccc1O)CO,inactive
5,CC(C)=CCc1c(O)cc2occ(-c3ccc4c(c3)C=CC(C)(C)O4)c(=O)c2c1O,inactive
6,CC(C)=CCc1c(O)cc(O)c2c(=O)c(-c3ccc4c(c3)C=CC(C)(C)O4)coc12,inactive
7,COc1ccc([C@@H]2COc3cc(O)c(CC=C(C)C)c(O)c3C2=O)cc1CC=C(C)C,inactive
